Target: canine TRPM8 (Canis lupus familiaris, UniProt Q1A7N1)
Test: In Vitro Canine TRPM8 Functional Assay (Ca2+ fluorescence, icilin activation)
Type: cell-based
Conditions: for IC50: HEK293 cells stably expressing canine TRPM8, icilin activation, eight-point dose-response, read-out: IC50; for inhibition at 0.2 µM: compound at 0.2 μM, canine TRPM8, icilin activation, read-out: % Inh @ 0.2
How it was run: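 Canine TRPM8 stably expressed in HEK293; compound added 5 min before icilin challenge (~80% max response), with fluorescent Ca2+ signal tracked throughout.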

Sequence of canine TRPM8 (Q1A7N1 1-1104): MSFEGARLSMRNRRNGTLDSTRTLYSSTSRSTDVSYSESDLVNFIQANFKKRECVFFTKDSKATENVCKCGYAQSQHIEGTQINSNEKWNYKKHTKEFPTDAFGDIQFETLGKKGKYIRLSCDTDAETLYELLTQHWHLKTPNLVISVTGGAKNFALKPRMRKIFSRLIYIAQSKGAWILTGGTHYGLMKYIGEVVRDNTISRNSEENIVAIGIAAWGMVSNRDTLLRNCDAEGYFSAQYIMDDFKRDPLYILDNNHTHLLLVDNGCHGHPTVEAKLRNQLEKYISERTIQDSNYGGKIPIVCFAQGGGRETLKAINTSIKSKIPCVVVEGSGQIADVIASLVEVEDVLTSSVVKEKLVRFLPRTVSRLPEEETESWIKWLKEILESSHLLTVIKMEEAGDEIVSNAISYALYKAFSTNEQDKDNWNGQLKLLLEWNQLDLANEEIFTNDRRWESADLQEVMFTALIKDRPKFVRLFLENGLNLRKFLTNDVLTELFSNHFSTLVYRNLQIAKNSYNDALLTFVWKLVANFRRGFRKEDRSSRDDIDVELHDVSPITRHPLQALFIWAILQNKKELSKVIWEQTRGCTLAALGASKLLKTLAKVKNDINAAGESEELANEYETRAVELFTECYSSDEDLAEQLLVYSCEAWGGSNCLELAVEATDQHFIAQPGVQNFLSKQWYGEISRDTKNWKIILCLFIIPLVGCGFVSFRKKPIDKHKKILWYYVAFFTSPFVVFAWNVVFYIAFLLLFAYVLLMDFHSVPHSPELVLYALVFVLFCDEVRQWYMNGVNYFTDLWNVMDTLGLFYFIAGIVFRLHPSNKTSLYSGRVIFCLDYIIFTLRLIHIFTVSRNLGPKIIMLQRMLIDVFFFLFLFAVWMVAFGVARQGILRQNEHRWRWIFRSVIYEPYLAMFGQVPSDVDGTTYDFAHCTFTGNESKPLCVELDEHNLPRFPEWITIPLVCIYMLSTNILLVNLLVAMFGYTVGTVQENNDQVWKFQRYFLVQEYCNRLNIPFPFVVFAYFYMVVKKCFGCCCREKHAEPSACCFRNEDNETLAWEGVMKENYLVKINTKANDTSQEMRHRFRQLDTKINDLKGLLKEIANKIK

SMILES	IC50 [nM]	inhibition at 0.2 µM [%]
CS(=O)(=O)Nc1ccc(S(=O)(=O)N(CCCCC(F)(F)F)c2cc3ccccc3s2)cc1 [Compound 678, N-(Benzo[b]thiophen-2-yl)-4-methanesulfonylamino-N-(5,5,5-trifluoro-pentyl)-benzenesulfonamide]	–	61
CS(=O)(=O)Nc1ccc(S(=O)(=O)N(CCCCC(F)(F)F)c2sc3ccccc3c2Br)cc1 [Compound 680, N-(3-Bromo-benzo[b]thiophen-2-yl)-4-methanesulfonylamino-N-(5,5,5-trifluoro-pentyl)-benzenesulfonamide]	56.1	96.2
CS(=O)(=O)Nc1c(Cl)cc(S(=O)(=O)N(CCC(F)(F)F)c2sc3ccccc3c2Cl)cc1Cl [Compound 681, 3,5-Dichloro-N-(3-chloro-benzo[b]thiophen-2-yl)-4-methanesulfonylamino-N-(3,3,3-trifluoro-propyl)-benzenesulfonamide]	67.4	93.3
CS(=O)(=O)Nc1c(Cl)cc(S(=O)(=O)N(CCCCC(F)(F)F)c2sc3ccccc3c2Cl)cc1Cl [Compound 682, 3,5-Dichloro-N-(3-chloro-benzo[b]thiophen-2-yl)-4-methanesulfonylamino-N-(5,5,5-trifluoro-pentyl)-benzenesulfonamide]	31.7	101
CS(=O)(=O)Nc1ccc(S(=O)(=O)N(CCC(F)(F)F)c2sc3ccccc3c2Br)cc1Br [Compound 683, 3-Bromo-N-(3-bromo-benzo[b]thiophen-2-yl)-4-methanesulfonylamino-N-(3,3,3-trifluoro-propyl)-benzenesulfonamide]	25.8	101
O=c1[nH]c(-c2ccc(S(=O)(=O)N(CCC(F)(F)F)c3cc4ccccc4s3)cc2)ns1 [Compound 684, N-(Benzo[b]thiophen-2-yl)-N-(3,3,3-trifluoro-propyl)-4-(5-oxo-4,5-dihydro-[1,2,4]thiadiazol-3-yl)-benzenesulfonamide]	145	73.1
O=C(O)c1ccc(S(=O)(=O)N(CCCCC(F)(F)F)c2cc3ccccc3s2)c(F)c1 [Compound 685, N-(Benzo[b]thiophen-2-yl)-N-(5,5,5-trifluoro-pentyl)-2-fluoro-4-carboxy-benzenesulfonamide]	11.9	102
O=C(O)c1ccc(S(=O)(=O)N(Cc2ccc(F)c(C(F)(F)F)c2)c2cc3ccccc3s2)c(F)c1 [Compound 686, N-(Benzo[b]thiophen-2-yl)-N-(4-fluoro-3-trifluoromethyl-benzyl)-2-fluoro-4-carboxy-benzenesulfonamide]	4.7	105
O=c1[nH]c(-c2ccc(S(=O)(=O)N(CCCCC(F)(F)F)c3cc4ccccc4s3)cc2)ns1 [Compound 687, N-(Benzo[b]thiophen-2-yl)-N-(5,5,5-trifluoro-pentyl)-4-(5-oxo-4,5-dihydro-[1,2,4]thiadiazol-3-yl)-benzenesulfonamide]	56.9	74.5
CNc1ccc(S(=O)(=O)N(CCC2CC2)c2sc3ccccc3c2Br)cc1 [Compound 693, N-(3-Bromo-benzo[b]thiophen-2-yl)-N-(2-cyclopropyl-ethyl)-4-methylamino-benzenesulfonamide]	25.2	103
O=C(Nc1ccc(S(=O)(=O)N(Cc2ccc(F)c(C(F)(F)F)c2)c2sc3ccccc3c2Br)cc1)C(F)(F)F [Compound 695, N-(3-Bromo-benzo[b]thiophen-2-yl)-N-(4-fluoro-3-trifluoromethyl-benzyl)-4-trifluoroacetamido-benzenesulfonamide]	17	101
O=S(=O)(CC(F)(F)F)N(Cc1ccc(F)c(C(F)(F)F)c1)c1cc2ccccc2s1 [Compound 697, N-(Benzo[b]thiophen-2-yl)-N-(4-fluoro-3-trifluoromethyl-benzyl)-2,2,2-trifluoro-ethanesulfonamide]	64	92

Next, values leading:

IC50 [nM]	inhibition at 0.2 µM [%]	SMILES
24.6	101	CS(=O)(=O)Nc1ccc(S(=O)(=O)N(CCC(F)(F)F)c2sc3ccccc3c2Br)cc1 [Compound 677, N-(3-Bromo-benzo[b]thiophen-2-yl)-N-(3,3,3-trifluoro-propyl)-4-methanesulfonylamino-benzenesulfonamide]
57.9	100	CS(=O)(=O)Nc1ccc(S(=O)(=O)N(CCCCC(F)(F)F)c2sc3ccccc3c2Cl)cc1 [Compound 679, N-(3-Chloro-benzo[b]thiophen-2-yl)-4-methanesulfonylamino-N-(5,5,5-trifluoro-pentyl)-benzenesulfonamide]
60.2	99	CNc1ccc(S(=O)(=O)N(CCC2CC2)c2cc3ccccc3s2)cc1 [Compound 688, N-(Benzo[b]thiophen-2-yl)-N-(2-cyclopropyl-ethyl)-4-methylamino-benzenesulfonamide]
52.8	86	CN(C)c1ccc(S(=O)(=O)N(CCC2CC2)c2cc3ccccc3s2)cc1 [Compound 689, N-(Benzo[b]thiophen-2-yl)-N-(2-cyclopropyl-ethyl)-4-dimethylamino-benzenesulfonamide]
16.1	101	CNc1ccc(S(=O)(=O)N(CCC2CC2)c2sc3ccccc3c2Cl)cc1 [Compound 690, N-(3-Chloro-benzo[b]thiophen-2-yl)-N-(2-cyclopropyl-ethyl)-4-methylamino-benzenesulfonamide]
16	102	CNc1ccc(S(=O)(=O)N(CCC2CC2)c2sc3ccccc3c2Cl)cc1Cl [Compound 691, 3-Chloro-N-(3-chloro-benzo[b]thiophen-2-yl)-N-(2-cyclopropyl-ethyl)-4-methylamino-benzenesulfonamide]
7.2	101	CNc1ccc(S(=O)(=O)N(CCC2CC2)c2sc3ccccc3c2Br)cc1Br [Compound 692, 3-Bromo-N-(3-bromo-benzo[b]thiophen-2-yl)-N-(2-cyclopropyl-ethyl)-4-methylamino-benzenesulfonamide]
23	97	COC(=O)c1ccc(S(=O)(=O)N(Cc2ccc(F)c(C(F)(F)F)c2)c2sc3ccccc3c2C2CCC2)cc1 [Compound 696, N-(3-Cyclobutyl-benzo[b]thiophen-2-yl)-N-(4-fluoro-3-trifluoromethyl-benzyl)-4-carbomethoxy-benzenesulfonamide]
2	102	O=C(O)c1ccc(S(=O)(=O)N(Cc2ccc(F)c(C(F)(F)F)c2)c2sc3ccccc3c2C2CCC2)cc1 [Compound 698, N-(3-Cyclobutyl-benzo[b]thiophen-2-yl)-N-(4-fluoro-3-trifluoromethyl-benzyl)-4-carboxy-benzenesulfonamide]
6	103	Cc1c(N(Cc2ccc(F)c(C(F)(F)F)c2)S(=O)(=O)CCCO)sc2ccccc12 [Compound 699, N-(4-Fluoro-3-trifluoromethyl-benzyl)-N-(3-methyl-benzo[b]thiophen-2-yl)-3-hydroxy-propanesulfonamide]
32.5	95	Cc1c(N(Cc2ccc(OC(F)(F)F)cc2)S(=O)(=O)c2ccc(-n3ccnc3CN(C)C)cc2)sc2ccccc12 [Compound 701, 4-(2-Dimethylaminomethyl-imidazol-1-yl)-N-(3-methyl-benzo[b]thiophen-2-yl)-N-(4-trifluoromethoxy-benzyl)-benzenesulfonamide]

From US9434711B2 (Janssen Pharmaceutica, NV, priority 2007, dated 2016)
